Columns and labels:
[1] = target: SOS1:KRAS (G12C) interaction (Homo sapiens (Human), UniProt Q07889); assay: SOS1-KRas(G12C) FRET Assay; format: binding; details: 0.5 nM His10-SOS1 (res. 564-1049), 2.5 nM GST-KRAS (res. 1-169, G12C); read-out: SOS-KRas(G12C) FRET IC50
Method in brief: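 TR-FRET measured binding of His10-SOS1 (res. 564-1049, 0.5 nM) to GST-KRAS G12C (res. 1-169, 2.5 nM), with anti-GST-Eu(K) and anti-6His-XL665 labels, in PBS with BSA, MgCl2, KF and DTT; 0.5% DMSO. Compound and SOS1 were pre-incubated 15 min at 25° C, KRAS was added, and the plate was read at 665/615 nm after 2 h at RT. IC50 and Hill slope came from non-linear regression.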

human SOS1 = human SOS1 (Homo sapiens (Human), UniProt Q07889); assay: Surface Plasmon Resonance (SPR) SOS1 Binding Assay; details: biotinylated SOS1 (res. 564-1049), 25° C., kinetic or steady state fit, read-out: KD for hSOS1
Procedure: Binding to SOS1 was measured using a SPR assay with purified recombinant human SOS1 substrate (res. 564-1049 with N-terminal Avi tag; purified and biotinylated based on Hillig, et al., Proc Natl Acad Sci USA (2019); 116(7):2551-2560). SPR measurements were performed on a Biacore 8K SPR instrument (GE Healthcare, Sweden). Assays were performed at 25° C. using Series S SA sensor chips pre-coated with streptavidin (GE Healthcare, Cat. BR100531). Biotinylated SOS1 diluted in sample buffer (20 mM Tris HCl, 150 mM NaCl, 1 mM DTT, 0.05% TWEEN 20, 1 mM MgCl2, pH 8.0) was captured to one flow cell of the chip to about 3,000 resonance units (RU) using sample buffer supplemented with 5% DMSO as a running buffer. Serial dilutions of the assayed compounds in the running buffer at 100, 50 or 0.5 μM were injected for 60 s at a flow rate of 30 μL/min and association phases were recorded. Dissociation of the samples was monitored for 600 s. Data processing was performed using Biacore Insight Software (Biacore, GE Healthcare). Sensorgrams recorded on a SA flow cell without captured protein were subtracted from sensorgrams recorded on the SOS1 surface. Blank injections of running buffer were used for double referencing and solvent correction was applied to all sample sensorgrams to correct for buffer mismatches. KDs were estimated using a kinetic or steady state, where applicable, fitting model describing a reversible equilibrium with 1:1 binding between SOS1 and the compound.

Sequence of human SOS1 (Q07889 564-1049): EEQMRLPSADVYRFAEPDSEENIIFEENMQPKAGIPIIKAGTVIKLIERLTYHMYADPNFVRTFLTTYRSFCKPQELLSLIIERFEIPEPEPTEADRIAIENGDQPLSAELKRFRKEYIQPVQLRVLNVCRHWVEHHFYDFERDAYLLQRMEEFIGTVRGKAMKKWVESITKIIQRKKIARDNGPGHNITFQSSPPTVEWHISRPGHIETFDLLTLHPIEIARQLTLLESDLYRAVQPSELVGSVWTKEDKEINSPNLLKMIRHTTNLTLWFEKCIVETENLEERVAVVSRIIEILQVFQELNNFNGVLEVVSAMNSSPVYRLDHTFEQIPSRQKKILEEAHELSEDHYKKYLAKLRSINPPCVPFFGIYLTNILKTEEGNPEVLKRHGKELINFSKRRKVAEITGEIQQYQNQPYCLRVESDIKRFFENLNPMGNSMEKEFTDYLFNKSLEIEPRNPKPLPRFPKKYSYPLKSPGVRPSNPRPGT
Sequence of SOS1:KRAS (G12C) interaction (Q07889 564-1049, stated change not applied): as the sequence (Q07889 564-1049) above

| Structure (SMILES) | IC50 [1] [nM] | Kd (human SOS1) [nM] |
| --- | --- | --- |
| C[C@H](Nc1nn(C)c(=O)c2cc(=O)n(C3CCOCC3)cc12)c1cccc2c1CCC2(F)F [Example 68, (S)-4-((1-(1,1-difluoro-2,3-dihydro-1H-inden-4-yl)ethyl)amino)-2-methyl-6-(tetrahydro-2H-pyran-4-yl)pyrido[3,4-d]pyridazine-1,7(2H,6H)-dione] | 1710 | 1490 |
| C[C@@H](Nc1nn(C)c(=O)c2cc(=O)n(C3CC3)cc12)c1cccc(C(F)F)c1F [Example 17, (R)-6-cyclopropyl-4-((1-(3-(difluoromethyl)-2-fluorophenyl)ethyl)amino)-2-methyl-2,6-dihydropyrido[3,4-d]pyridazine-1,7-dione] | 248 | 31 |
| Cc1c([C@@H](C)Nc2nn(C)c(=O)c3cc(=O)n([C@@]4(C)CCOC4)cc23)cccc1C(F)(F)F (single isomer, unassigned) [Example 54] | 285 | 125 |
| COc1c(=O)n([C@H]2CCOC[C@@H]2F)cc2c(N[C@H](C)c3cccc(C(F)F)c3F)nn(C)c(=O)c12 (single isomer, unassigned) [Example 60] | 129 | 43 |
| C[C@H](Nc1nn(C)c(=O)c2cc(=O)n(C3CCOCC3)cc12)c1cccc(C(F)(F)[C@@H]2CCCO2)c1F (single isomer, unassigned) [Example 44] | 5810 | > 5000 |
| Cc1c([C@@H](C)Nc2nn(C)c(=O)c3cc(=O)n(C45CC(C4)C5)cc23)cccc1C(F)(F)F [Example 16, (R)-6-(bicyclo[1.1.1]pentan-1-yl)-2-methyl-4-((1-(2-methyl-3-(trifluoromethyl)phenyl)ethyl)amino)-2,6-dihydropyrido[3,4-d]pyridazine-1,7-dione] | 235 | 84 |
| Cc1c([C@@H](C)Nc2nn(C)c(=O)c3cc(=O)n([C@H]4C[C@@H](O)C4)cc23)cccc1C(F)(F)F [Example 14, 6-((1s,3s)-3-hydroxycyclobutyl)-2-methyl-4-(((R)-1-(2-methyl-3-(trifluoromethyl)phenyl)ethyl)amino)-2,6-dihydropyrido[3,4-d]pyridazine-1,7-dione] | 537 | 87 |
| C[C@@H](Nc1nn(C)c(=O)c2cc(=O)n(C3CCOCC3)cc12)c1cccc(C(F)(F)F)c1 [Example 5, (R)-2-methyl-6-(tetrahydro-2H-pyran-4-yl)-4-((1-(3-(trifluoromethyl)phenyl)ethyl)amino)-2,6-dihydropyrido[3,4-d]pyridazine-1,7-dione] | 96.4 | 22 |
| C[C@@H](Nc1nn(C)c(=O)c2cc(=O)n([C@@H]3CCOC(C)(C)C3)cc12)c1cccc(C(F)F)c1F (single isomer, unassigned) [Example 84] | 229 | 28 |
| C[C@@H](Nc1nn(C)c(=O)c2cc(=O)n(C3CC3)cc12)c1cc(Br)cs1 [Example 56, (R)-4-((1-(4-bromothiophen-2-yl)ethyl)amino)-6-cyclopropyl-2-methyl-2,6-dihydropyrido[3,4-d]pyridazine-1,7-dione] | 1930 | 530 |
| C[C@H](Nc1nn(C)c(=O)c2cc(=O)n([C@H]3C[C@@H](C#N)C3)cc12)c1cccc(C(F)F)c1F [Example 75, (1S,3s)-3-(4-(((R)-1-(3-(difluoromethyl)-2-fluorophenyl)ethyl)amino)-2-methyl-1,7-dioxo-1,7-dihydropyrido[3,4-d]pyridazin-6(2H)-yl)cyclobutane-1-carbonitrile] | 127 | 73 |
| Cc1c([C@@H](C)Nc2nn(C)c(=O)c3c([C@H]4CCCN4)c(=O)n(C4CC4)cc23)cccc1C(F)(F)F [Example 35, 6-cyclopropyl-2-methyl-4-(((R)-1-(2-methyl-3-(trifluoromethyl)phenyl)ethyl)amino)-8-((R)-pyrrolidin-2-yl)-2,6-dihydropyrido[3,4-d]pyridazine-1,7-dione] | 78.4 | 17 |
| CC(=O)N1CCC(n2cc3c(N[C@H](C)c4cccc(C(F)(F)F)c4C)nn(C)c(=O)c3cc2=O)CC1 [Example 9, (R)-6-(1-acetylpiperidin-4-yl)-2-methyl-4-((1-(2-methyl-3-(trifluoromethyl)phenyl)ethyl)amino)-2,6-dihydropyrido[3,4-d]pyridazine-1,7-dione] | 286 | 64 |
| Cc1c([C@@H](C)Nc2nn(C)c(=O)c3c(N4CC[C@@H](N)C4)c(=O)n(C4CC4)cc23)cccc1C(F)(F)F [Example 20, 8-((R)-3-aminopyrrolidin-1-yl)-6-cyclopropyl-2-methyl-4-(((R)-1-(2-methyl-3-(trifluoromethyl)phenyl)ethyl)amino)-2,6-dihydropyrido[3,4-d]pyridazine-1,7-dione] | 284 | 63 |
| C[C@@H](Nc1nn(C)c(=O)c2cc(=O)n([C@@H]3CCOC[C@H]3F)cc12)c1cccc(C(F)F)c1F (single isomer, unassigned) [Example 31] | 146 | 45 |

Stronger by IC50 [1], values ahead:

| IC50 [1] [nM] | Kd (human SOS1) [nM] | Structure (SMILES) |
| --- | --- | --- |
| 60.8 | 27 | COc1c(=O)n(C2(C(F)F)CC2)cc2c(N[C@H](C)c3cccc(C(F)F)c3F)nn(C)c(=O)c12 [Example 73, (R)-4-((1-(3-(difluoromethyl)-2-fluorophenyl)ethyl)amino)-6-(1-(difluoromethyl)cyclopropyl)-8-methoxy-2-methyl-2,6-dihydropyrido[3,4-d]pyridazine-1,7-dione] |
| 21.1 | 9 | C[C@@H](Nc1nn(C)c(=O)c2cc(=O)n(C3CCOCC3)cc12)c1cccc(C(F)(F)C(C)(C)O)c1F [Example 40, (R)-4-((1-(3-(1,1-difluoro-2-hydroxy-2-methylpropyl)-2-fluorophenyl)ethyl)amino)-2-methyl-6-(tetrahydro-2H-pyran-4-yl)-2,6-dihydropyrido[3,4-d]pyridazine-1,7-dione] |
| 33.3 | 16 | C[C@@H](Nc1nn(C)c(=O)c2cc(=O)n(C3CCOCC3)cc12)c1cccc(C(C)(F)F)c1F [Example 36, (R)-4-((1-(3-(1,1-difluoroethyl)-2-fluorophenyl)ethyl)amino)-2-methyl-6-(tetrahydro-2H-pyran-4-yl)-2,6-dihydropyrido[3,4-d]pyridazine-1,7-dione] |
| 32.7 | 15 | COc1c(=O)n([C@@H]2CCOC[C@@H]2F)cc2c(N[C@H](C)c3cccc(C(F)F)c3F)nn(C)c(=O)c12 (single isomer, unassigned) [Example 58] |
| 69.8 | 31 | C[C@@H](Nc1nn(C)c(=O)c2cc(=O)n(C3(C(F)(F)F)CC3)cc12)c1cccc(C(F)F)c1F [Example 71, (R)-4-((1-(3-(difluoromethyl)-2-fluorophenyl)ethyl)amino)-2-methyl-6-(1-(trifluoromethyl)cyclopropyl)-2,6-dihydropyrido[3,4-d]pyridazine-1,7-dione] |
| 21.9 | 8 | CNCc1ccccc1-c1csc([C@@H](C)Nc2nn(C)c(=O)c3cc(=O)n(C4CC4)cc23)c1 [Example 57, (R)-6-cyclopropyl-2-methyl-4-((1-(4-(2-((methylamino)methyl)phenyl)thiophen-2-yl)ethyl)amino)-2,6-dihydropyrido[3,4-d]pyridazine-1,7-dione] |
| 60.5 | 24 | C[C@@H](Nc1nn(C)c(=O)c2cc(=O)n(C3(C(F)F)CC3)cc12)c1cccc(C(F)F)c1F [Example 43, (R)-4-((1-(3-(difluoromethyl)-2-fluorophenyl)ethyl)amino)-6-(1-(difluoromethyl)cyclopropyl)-2-methyl-2,6-dihydropyrido[3,4-d]pyridazine-1,7-dione] |
| 75.3 | 13 | C[C@@H](Nc1nn(C)c(=O)c2cc(=O)n(C3CCOCC3)cc12)c1cccc2sccc12 [Example 62, (R)-4-((1-(benzo[b]thiophen-4-yl)ethyl)amino)-2-methyl-6-(tetrahydro-2H-pyran-4-yl)-2,6-dihydropyrido[3,4-d]pyridazine-1,7-dione] |
| 24.6 | 10 | C[C@@H](Nc1nn(C)c(=O)c2cc(=O)n(C3CCOCC3)cc12)c1cccc2c1CCC2(F)F [Example 67, (R)-4-((1-(1,1-difluoro-2,3-dihydro-1H-inden-4-yl)ethyl)amino)-2-methyl-6-(tetrahydro-2H-pyran-4-yl)pyrido[3,4-d]pyridazine-1,7(2H,6H)-dione] |
| 31.3 | 8 | C[C@@H](Nc1nn(C)c(=O)c2cc(=O)n([C@H]3CCOC[C@H]3F)cc12)c1cccc(C(F)F)c1F (single isomer, unassigned) [Example 33] |

— patent US20240279221A1, “HETEROCYCLIC COMPOUNDS AND METHODS OF USE” (Schrödinger, Inc., priority 2021, published 2024)
